Each structure is given as a SMILES string. Where two headings read alike, the source gives them in different places. Bounds are passed on as bounds.

The target in the test is Human Factor D (Homo sapiens (Human), UniProt P00746). The experiment in a line: Human Factor D Assay. The class given is biochemical. How it is done: Human Factor D (purified from human serum, Complement Technology, Inc.) at 80 nM final concentration is incubated with test compound at various concentrations for 5 min at room temperature in 50 mM Tris, 1M NaCl, pH 7.5. A synthetic substrate Z-L-Lys-SBzl and DTNB (Ellman's reagent) are added to final concentrations of 100 μM each. Absorbance at 405 nm (A405) is recorded at 30 second intervals for 30 min using a microplate spectrophotometer. IC50 values are calculated by nonlinear regression of Complement Factor D reaction rates as a function of test compound concentration.

Where [1] appears, read: Table 5, Human Factor D 80 nM, substrate Z-L-Lys-SBzl, read-out: IC50 (Stars).
Setting [2] is: Table 6, Human Factor D 80 nM, substrate Z-L-Lys-SBzl, read-out: IC5 (Stars).

Human Factor D, sequence (P00746 26-253): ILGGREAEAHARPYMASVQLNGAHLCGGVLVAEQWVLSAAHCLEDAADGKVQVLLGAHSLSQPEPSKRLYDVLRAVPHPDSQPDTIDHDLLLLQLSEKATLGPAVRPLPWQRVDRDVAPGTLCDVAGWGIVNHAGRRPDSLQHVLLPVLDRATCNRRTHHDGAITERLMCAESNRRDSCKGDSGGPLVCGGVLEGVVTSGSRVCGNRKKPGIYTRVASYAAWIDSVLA

In the case of `CC(=O)c1cc(CC(=O)N2C[C@H](F)C[C@H]2C(=O)Nc2cccc(-c3ccccc3Cl)c2F)cc(-c2cnc(C)nc2)c1` [Compound T-107, (2S,4R)-1-(2-(3-acetyl-5-(2-methylpyrimidin-5-yl)phenyl)acetyl)-N-(2′-chloro-2-fluoro-[1,1′-biphenyl]-3-yl)-4-fluoropyrrolidine-2-carboxamide], the IC50 (Table 7, read-out: IC5 (Stars)) is less than 1000 nM.

`Cc1ccc(Br)nc1NC(=O)[C@@H]1C[C@@]2(C)C[C@H]2N1C(=O)Cc1cccc(-c2cnc(O)nc2)c1` [Compound T-96, (1R,3S,5R)-N-(6-bromo-3-methylpyridin-2-yl)-2-(2-(3-(2-hydroxypyrimidin-5-yl)phenyl)acetyl)-5-methyl-2-azabicyclo[3.1.0]hexane-3-carboxamide]: for the setting “Table 7, read-out: IC5 (Stars)”, the IC50 was greater than 10000 nM.

As to `Cc1ncc(-c2cc(CC(=O)N3C[C@H](F)C[C@H]3C(=O)Nc3cccc(-c4ccccc4Cl)c3F)cc(OCC(=O)O)c2)cn1` [Compound T-120, 2-(3-(2-((2S,4R)-2-((2′-chloro-2-fluoro-[1,1′-biphenyl]-3-yl)carbamoyl)-4-fluoropyrrolidin-1-yl)-2-oxoethyl)-5-(2-methylpyrimidin-5-yl)phenoxy)acetic acid], the IC50 (Table 7, read-out: IC5 (Stars)) was 1000 to 10000 nM.

For `COc1ncc(-c2cc(CC(=O)N3C[C@H](F)C[C@H]3C(=O)Nc3cccc(Br)n3)cc(-c3cnc(OC)nc3)c2)cn1` [Compound T-108, (2S,4R)-1-(2-(3,5-bis(2-methoxypyrimidin-5-yl)phenyl)acetyl)-N-(6-bromopyridin-2-yl)-4-fluoropyrrolidine-2-carboxamide], for the setting “Table 7, read-out: IC5 (Stars)”, the IC50 is greater than 10000 nM.

Turning to `CC(=O)c1nn(CC(=O)N2[C@H](C(=O)Nc3nc(Br)ccc3C)C[C@@]3(C)C[C@@H]23)c2ccccc12` [Compound T-13, (1R,3S,5R)-2-(2-(3-acetyl-1H-indazol-1-yl)acetyl)-N-(6-bromo-3-methylpyridin-2-yl)-5-methyl-2-azabicyclo[3.1.0]hexane-3-carboxamide], under setting [1], the IC50 is less than 1000 nM.

`CC(=O)c1nn(CC(=O)N2C[C@H](F)C[C@H]2C(=O)Nc2cccc(Br)n2)c2ccc(OCCS(=O)(=O)CC3(C)COC3)cc12` [Compound T-54, (2S,4R)-1-(2-(3-acetyl-5-(2-(((3-methyloxetan-3-yl)methyl)sulfonyl)ethoxy)-1H-indazol-1-yl)acetyl)-N-(6-bromopyridin-2-yl)-4-fluoro-pyrrolidine-2-carboxamide]: the IC50 under setting [2] was less than 1000 nM.

On to `Cc1ccc(Br)nc1NC(=O)[C@@H]1C[C@@]2(C)C[C@H]2N1C(=O)Cn1nc(N2CCCC2=O)c2ccncc21` [Compound T-86, (1R,3S,5R)-N-(6-bromo-3-methylpyridin-2-yl)-5-methyl-2-(2-(3-(2-oxopyrrolidin-1-yl)-1H-pyrazolo[3,4-c]pyridin-1-yl)acetyl)-2-azabicyclo[3.1.0]hexane-3-carboxamide], for which the IC50 (Table 7, read-out: IC5 (Stars)) is greater than 10000 nM.

Take `CC(=O)c1nn(CC(=O)N2[C@H]3C[C@@]3(C)C[C@H]2C(=O)Nc2nc(Br)ccc2C)c2c(S(C)(=N)=O)cccc12` (stereo partly drawn) [Compound T-36, (1S,3S,5S)-2-(2-(3-acetyl-7-(S-methylsulfonimidoyl)-1H-indazol-1-yl)acetyl)-N-(6-bromo-3-methylpyridin-2-yl)-5-methyl-2-azabicyclo[3.1.0]hexane-3-carboxamide]: the IC50 under setting [1] is greater than 10000 nM.

Turning to `CS(=O)(COc1ccc2c(C(N)=O)nn(CC(=O)N3C[C@H](F)C[C@H]3C(=O)Nc3cccc(-c4ccccc4Cl)c3F)c2c1)=NC#N` (stereo partly shown) [Compound T-62], under setting [2], the IC50 was less than 1000 nM.

As to `Cc1ncc(-c2cc(CC(=O)N3C[C@H](F)C[C@H]3C(=O)Nc3cccc(Br)n3)cc(C(N)=O)c2)cn1` [Compound T-111, (2S,4R)-N-(6-bromopyridin-2-yl)-1-(2-(3-carbamoyl-5-(2-methylpyrimidin-5-yl)phenyl)acetyl)-4-fluoropyrrolidine-2-carboxamide], the IC50 (Table 7, read-out: IC5 (Stars)) is 1000 to 10000 nM.

For the compound `CC(=O)c1nn(CC(=O)N2C[C@H](F)C[C@H]2C(=O)Nc2cccc(Br)n2)c2c1CCCC2` [Compound T-37, (2S,4R)-1-(2-(3-acetyl-4,5,6,7-tetrahydro-1H-indazol-1-yl)acetyl)-N-(6-bromopyridin-2-yl)-4-fluoropyrrolidine-2-carboxamide], the IC50 under setting [1] was in the range of 1000 to 10000 nM.

As to `Cc1ccc(Br)nc1NC(=O)[C@@H]1C[C@@]2(C)C[C@H]2N1C(=O)Cn1nc(N2CCC2=O)c2ccncc21` [Compound T-87, (1R,3S,5R)-N-(6-bromo-3-methylpyridin-2-yl)-5-methyl-2-(2-(3-(2-oxoazetidin-1-yl)-1H-pyrazolo[3,4-c]pyridin-1-yl)acetyl)-2-azabicyclo[3.1.0]hexane-3-carboxamide], where the note is “Table 7, read-out: IC5 (Stars)”, the IC50 was less than 1000 nM.

As for `Cc1ncc(-c2cc(C#N)cc(CC(=O)N3C[C@H](F)C[C@H]3C(=O)Nc3cccc(-c4ccccc4Cl)c3F)c2)cn1` [Compound T-116, (2S,4R)-N-(2′-chloro-2-fluoro-[1,1′-biphenyl]-3-yl)-1-(2-(3-cyano-5-(2-methylpyrimidin-5-yl)phenyl)acetyl)-4-fluoropyrrolidine-2-carboxamide], for the setting “Table 7, read-out: IC5 (Stars)”, the IC50 was less than 1000 nM.

Turning to `CC(=O)c1cn(CC(=O)N2[C@H]3C[C@@]3(CN(C)C)C[C@H]2C(=O)NCc2cccc(Cl)c2F)c2cc(P(C)(=O)O)ccc12` [Compound T-48, (3-acetyl-1-(2-((1S,3S,5S)-3-((3-chloro-2-fluorobenzyl)carbamoyl)-5-((dimethylamino)methyl)-2-azabicyclo[3.1.0]hexan-2-yl)-2-oxoethyl)-1H-indol-6-yl)(methyl)phosphinic acid], under setting [1], the IC50 lay in the range of 1000 to 10000 nM.

With `Cc1ccc(Br)nc1NC(=O)[C@@H]1C[C@@]2(CNC(=O)COCCOCCNC(=O)COCCOCCNC(=O)CC[C@H](NC(=O)CCCCCCCCCCCCCCCCC(=O)O)C(=O)O)C[C@H]2N1C(=O)Cn1nc(C(N)=O)c2cc(C#Cc3ncc(F)cn3)ccc21` [Compound T-177, (S)-1-((1R,3S,5R)-3-((6-bromo-3-methylpyridin-2-yl)carbamoyl)-2-(2-(3-carbamoyl-5-((5-fluoropyrimidin-2-yl)ethynyl)-1H-indazol-1-yl)acetyl)-2-azabicyclo[3.1.0]hexan-5-yl)-24-carboxy-3,12,21,26-tetraoxo-5,8,14,17-tetraoxa-2,11,20,25-tetraazatritetracontan-43-oic acid], the IC50 (Table 7, read-out: IC5 (Stars)) is less than 1000 nM.

For the compound `Cc1ncc(-c2cc(C#N)cc(CC(=O)N3C[C@H](F)C[C@H]3C(=O)Nc3cccc(Br)n3)c2)cn1` [Compound T-114, (2S,4R)-N-(6-bromopyridin-2-yl)-1-(2-(3-cyano-5-(2-methylpyrimidin-5-yl)phenyl)acetyl)-4-fluoropyrrolidine-2-carboxamide], the IC50 (Table 7, read-out: IC5 (Stars)) fell in the range of 1000 to 10000 nM.

In the case of `Cc1cc2c(s1)c(C(N)=O)nn2CC(=O)N1[C@H](C(=O)Nc2nc(Br)ccc2C)C[C@@]2(CNC(=O)COCCOCCNC(=O)COCCOCCNC(=O)CC[C@H](NC(=O)CCCCCCCCCCCCCCCCC(=O)O)C(=O)O)C[C@@H]12` [Compound T-100, (S)-1-((1R,3S,5R)-3-((6-bromo-3-methylpyridin-2-yl)carbamoyl)-2-(2-(3-carbamoyl-5-methyl-1H-thieno[3,2-c]pyrazol-1-yl)acetyl)-2-azabicyclo[3.1.0]hexan-5-yl)-24-carboxy-3,12,21,26-tetraoxo-5,8,14,17-tetraoxa-2,11,20,25-tetraazatritetracontan-43-oic acid], the IC50 (Table 7, read-out: IC5 (Stars)) was less than 1000 nM.

For the compound `Cc1ccc(Br)nc1NC(=O)[C@@H]1C[C@@]2(C)C[C@H]2N1C(=O)Cc1ccc2[nH]nc(C(=O)O)c2c1` [Compound T-102, 5-(2-((1R,3S,5R)-3-((6-bromo-3-methylpyridin-2-yl)carbamoyl)-5-methyl-2-azabicyclo[3.1.0]hexan-2-yl)-2-oxoethyl)-1H-indazole-3-carboxylic acid], under “Table 7, read-out: IC5 (Stars)”, the IC50 is 1000 to 10000 nM.

Consider `CC(=O)c1nn(CC(=O)N2[C@H](C(=O)Nc3nc(Br)ccc3C)C[C@@]3(CN4CC5(CCCC5)C4)C[C@@H]23)c2c(C)cccc12` [Compound T-42, (1R,3S,5R)-5-(2-azaspiro[3,4]octan-2-ylmethyl)-2-(2-(3-acetyl-7-methyl-1H-indazol-1-yl)acetyl)-N-(6-bromo-3-methylpyridin-2-yl)-2-azabicyclo[3.1.0]hexane-3-carboxamide], for which, under setting [1], the IC50 is less than 1000 nM.

Consider `COc1cc(CC(=O)N2[C@H](C(=O)Nc3nc(Br)ccc3C)C[C@@]3(C)C[C@@H]23)cc(-c2cnc(OC)nc2)c1` [Compound T-153, (1R,3S,5R)-N-(6-bromo-3-methylpyridin-2-yl)-2-(2-(3-methoxy-5-(2-methoxypyrimidin-5-yl)phenyl)acetyl)-5-methyl-2-azabicyclo[3.1.0]hexane-3-carboxamide], for which the IC50 (Table 7, read-out: IC5 (Stars)) was in the range of 1000 to 10000 nM.

For `CC(=O)c1nn(CC(=O)N2[C@H](C(=O)Nc3nc(Br)ccc3C)C[C@@]3(C)C[C@@H]23)c2c(S(C)(=N)=O)cccc12` (stereo partly drawn) [Compound T-41, (1R,3S,5R)-2-(2-(3-acetyl-7-(S-methylsulfonimidoyl)-1H-indazol-1-yl)acetyl)-N-(6-bromo-3-methylpyridin-2-yl)-5-methyl-2-azabicyclo[3.1.0]hexane-3-carboxamide], the IC50 under setting [1] was less than 1000 nM.

With `CCOP(=O)(COc1ccc2c(C(C)=O)nn(CC(=O)N3C[C@H](F)C[C@H]3C(=O)Nc3nc(Br)ccc3C)c2c1)OCC` [Compound T-78, diethyl (((3-acetyl-1-(2-((2S,4R)-2-((6-bromo-3-methylpyridin-2-yl)carbamoyl)-4-fluoropyrrolidin-1-yl)-2-oxoethyl)-1H-indazol-6-yl)oxy)methyl)phosphonate], the IC50 (Table 7, read-out: IC5 (Stars)) was less than 1000 nM.
